Reference: patent US5998596A, “Inhibition of protein kinase activity by aptameric action of oligonucleotides” (The United States of America as represented by the …)

Test system: K562 cells
Assay: K562 colony formation in soft agar
Type: cell-based, human
Settings: 50 μM ODN, two weeks, not electroporated
Method: K562, NIH 3T3, and A431 cells were purchased from the American Type Culture Collection (Rockville, Md.). PC3M prostate cancer cells were a generous gift from J. Trepel (National Institutes of Health, Bethesda, Md.). K562 and PC3M cells were cultured in RPMI 1640 with 10% heat-inactivated fetal bovine serum (FBS; GIBCO BRL, Grand Island, N.Y.) while NIH 3T3 and A431 cells were cultured in Dulbecco's modified Eagle's medium (Biofluids, Rockville, Md.) with 10% heat inactivated FBS. Cells were maintained at 37° C., 6% carbon dioxide with biweekly media changes. For soft agar cloning, cells were suspended in 0.3% low melting temperature agarose (SeaPlaque FMC BioProducts, Rockland, Me.) in RPMI 1640 with 10% total calf serum and maintained as above.
To evaluate the effects of these various ODNs of K562 cell growth, both growth in liquid culture and growth in soft agar were examined. […] Cells were electroporated in the presence of 50 μM ODN and kept in liquid culture. For soft agar cloning experiments, cells were not electroporated, but were grown in the presence of 50 μM ODN for two weeks. Liquid cultures were replenished with fresh medium containing 50 μM ODN. Two weeks following incubation in liquid culture, the number of trypan blue-excluding cells was determined. No effect on cell growth in liquid culture could be observed with any ODN tested (data not shown).

5'-GTCCACCATGGCGCGGCCGGC-3' [ODN1] (phosphorothioate caps, further chemistry not given here) [21mer ODN complementary to nucleotides -12 to +9 of the p210bcr-abl mRNA, phosphorothioate capped unless otherwise specified]
ability to form colonies in soft agar: inhibited the ability of these cells to form colonies in soft agar
